{"source": "ChEMBL document CHEMBL1201862", "about": "“PubChem BioAssay data set” (2004)", "key": {"[1]": {"molecular_target": "Eukaryotic translation initiation factor 4H (Homo sapiens, UniProt Q15056)", "assay": "human eIF4H binding inhibitors, primary screen, translation initiation inhibitor project, biochemical, uHTS, fluorescence polarization (AID 2012)"}, "[2]": {"molecular_target": "T1, Polyadenylate-binding protein 1 (Homo sapiens, UniProt P11940)", "T1 sequence (P11940 whole entry)": "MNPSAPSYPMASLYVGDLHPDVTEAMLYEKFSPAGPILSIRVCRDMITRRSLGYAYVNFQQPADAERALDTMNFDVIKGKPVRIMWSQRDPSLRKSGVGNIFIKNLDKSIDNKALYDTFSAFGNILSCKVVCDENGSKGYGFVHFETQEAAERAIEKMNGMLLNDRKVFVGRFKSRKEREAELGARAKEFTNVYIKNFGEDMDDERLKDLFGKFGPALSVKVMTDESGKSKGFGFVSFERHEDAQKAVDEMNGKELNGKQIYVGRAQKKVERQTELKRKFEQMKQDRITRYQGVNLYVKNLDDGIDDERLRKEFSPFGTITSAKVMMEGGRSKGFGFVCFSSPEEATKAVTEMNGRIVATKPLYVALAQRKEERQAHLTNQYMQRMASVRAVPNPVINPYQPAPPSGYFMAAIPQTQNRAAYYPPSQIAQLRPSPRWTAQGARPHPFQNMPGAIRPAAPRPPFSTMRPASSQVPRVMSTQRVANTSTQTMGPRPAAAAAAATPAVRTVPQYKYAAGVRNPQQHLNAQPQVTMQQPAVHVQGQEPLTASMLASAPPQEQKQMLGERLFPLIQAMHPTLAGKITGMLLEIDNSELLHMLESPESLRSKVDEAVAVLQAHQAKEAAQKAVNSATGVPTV", "assay": "PABP poly(A) RNA binding inhibitors, primary screen, biochemical, fluorescence polarization, uHTS (AID 2014)"}, "[3]": {"assay": "polyadenylation inhibitors in yeast reporter, dose response, luminescence, S. cerevisiae SKY197-pL101 (AID 2525)", "type": "functional, cell-based"}, "[4]": {"molecular_target": "T2, Streptokinase A (Streptococcus pyogenes serotype M1, UniProt P10520)", "T2 sequence (P10520 whole entry)": "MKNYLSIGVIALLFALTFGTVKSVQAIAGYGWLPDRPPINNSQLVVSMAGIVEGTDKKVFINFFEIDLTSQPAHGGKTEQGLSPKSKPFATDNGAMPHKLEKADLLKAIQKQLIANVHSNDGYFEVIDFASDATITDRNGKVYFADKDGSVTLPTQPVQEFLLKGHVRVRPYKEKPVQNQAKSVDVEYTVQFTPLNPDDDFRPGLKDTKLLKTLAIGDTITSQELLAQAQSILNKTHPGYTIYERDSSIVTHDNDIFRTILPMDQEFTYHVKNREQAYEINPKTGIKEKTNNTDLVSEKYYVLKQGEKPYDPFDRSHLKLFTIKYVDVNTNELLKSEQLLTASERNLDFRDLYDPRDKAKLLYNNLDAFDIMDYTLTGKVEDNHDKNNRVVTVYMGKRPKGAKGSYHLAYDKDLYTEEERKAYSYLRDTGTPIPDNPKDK", "assay": "S. pyogenes streptokinase expression inhibitors, potency, dose response, plasminogen activation absorbance, OD405 (AID 1914);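 also: secreted streptokinase activity via plasminogen activation per viability signal from cell pellet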", "type": "functional, Streptococcus pyogenes M1 GAS"}, "[5]": {"tested_on": "Streptococcus sp. 'group A'", "assay": "growth inhibition of control SK(-) GAS strain, dose response, counter-screen for streptokinase expression inhibitor project, luminescence, kanamycin, BacTiterGlo, confirmation (AID 1900)", "type": "functional, organism-based"}, "[6]": {"tested_on": "Streptococcus", "assay": "Group A Streptococcus viability loss, dose response, counter-screen for streptokinase expression inhibitor project, luminescence, BacTiterGlo (AID 1915);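 also: potency for reduction of bacterial viability or growth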", "type": "functional, organism-based"}, "[7]": {"assay": "Luminescence Cell-Based Dose Confirmation HTS to Identify Inhibitors of Polyadenylation.", "type": "functional"}, "[8]": {"molecular_target": "Multidrug resistance protein CDR1 (Candida albicans, UniProt P43071)", "sequence (P43071 whole entry, looked up)": "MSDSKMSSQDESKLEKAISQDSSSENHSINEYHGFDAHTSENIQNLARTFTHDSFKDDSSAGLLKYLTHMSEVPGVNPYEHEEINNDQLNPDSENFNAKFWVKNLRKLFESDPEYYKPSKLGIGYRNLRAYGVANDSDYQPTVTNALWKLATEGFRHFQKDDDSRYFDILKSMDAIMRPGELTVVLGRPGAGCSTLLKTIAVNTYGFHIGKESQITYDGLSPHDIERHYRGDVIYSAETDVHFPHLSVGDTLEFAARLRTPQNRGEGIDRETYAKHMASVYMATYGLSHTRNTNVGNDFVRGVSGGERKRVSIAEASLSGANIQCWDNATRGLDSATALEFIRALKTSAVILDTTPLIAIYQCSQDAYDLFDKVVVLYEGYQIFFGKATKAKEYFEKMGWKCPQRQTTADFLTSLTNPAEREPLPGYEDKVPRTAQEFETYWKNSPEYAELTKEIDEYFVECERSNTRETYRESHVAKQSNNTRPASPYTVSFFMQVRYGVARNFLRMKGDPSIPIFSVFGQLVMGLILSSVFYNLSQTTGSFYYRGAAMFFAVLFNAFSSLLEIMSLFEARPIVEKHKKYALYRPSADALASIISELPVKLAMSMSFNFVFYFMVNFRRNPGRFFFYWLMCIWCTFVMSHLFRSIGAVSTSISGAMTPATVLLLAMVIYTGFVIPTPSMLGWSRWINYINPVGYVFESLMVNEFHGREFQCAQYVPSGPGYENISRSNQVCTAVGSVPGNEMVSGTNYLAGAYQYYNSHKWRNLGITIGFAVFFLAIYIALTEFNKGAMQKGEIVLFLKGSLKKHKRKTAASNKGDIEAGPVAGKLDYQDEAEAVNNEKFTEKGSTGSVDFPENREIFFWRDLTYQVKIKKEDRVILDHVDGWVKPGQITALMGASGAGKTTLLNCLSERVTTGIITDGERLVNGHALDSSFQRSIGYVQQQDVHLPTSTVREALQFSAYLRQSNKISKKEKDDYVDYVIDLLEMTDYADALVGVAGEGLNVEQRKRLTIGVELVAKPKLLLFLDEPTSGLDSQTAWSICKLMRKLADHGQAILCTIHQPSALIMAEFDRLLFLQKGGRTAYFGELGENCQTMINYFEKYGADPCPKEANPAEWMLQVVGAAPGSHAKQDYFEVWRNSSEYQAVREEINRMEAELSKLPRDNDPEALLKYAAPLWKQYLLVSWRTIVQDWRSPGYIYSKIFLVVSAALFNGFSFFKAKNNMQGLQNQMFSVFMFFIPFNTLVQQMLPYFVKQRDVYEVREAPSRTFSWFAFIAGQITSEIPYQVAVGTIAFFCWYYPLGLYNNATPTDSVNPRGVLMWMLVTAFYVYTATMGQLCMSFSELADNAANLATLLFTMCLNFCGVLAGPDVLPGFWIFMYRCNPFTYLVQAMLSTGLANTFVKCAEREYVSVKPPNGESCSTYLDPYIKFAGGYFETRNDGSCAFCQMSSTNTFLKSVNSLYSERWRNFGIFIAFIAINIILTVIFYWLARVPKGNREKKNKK", "assay": "CaCDR1 efflux pump inhibitors in yeast, dose response, S. cerevisiae AD1-8u, singleplex, Cherry Pick1 hits (AID 588606)", "type": "functional"}, "[9]": {"molecular_target": "Peroxisome proliferator-activated receptor gamma/Nuclear receptor corepressor 2 (Homo sapiens, UniProt P37231+Q9Y618)", "type": "functional"}, "[10]": {"molecular_target": "Photoreceptor-specific nuclear receptor (Homo sapiens, UniProt Q9Y5X4)", "sequence (Q9Y5X4 whole entry)": "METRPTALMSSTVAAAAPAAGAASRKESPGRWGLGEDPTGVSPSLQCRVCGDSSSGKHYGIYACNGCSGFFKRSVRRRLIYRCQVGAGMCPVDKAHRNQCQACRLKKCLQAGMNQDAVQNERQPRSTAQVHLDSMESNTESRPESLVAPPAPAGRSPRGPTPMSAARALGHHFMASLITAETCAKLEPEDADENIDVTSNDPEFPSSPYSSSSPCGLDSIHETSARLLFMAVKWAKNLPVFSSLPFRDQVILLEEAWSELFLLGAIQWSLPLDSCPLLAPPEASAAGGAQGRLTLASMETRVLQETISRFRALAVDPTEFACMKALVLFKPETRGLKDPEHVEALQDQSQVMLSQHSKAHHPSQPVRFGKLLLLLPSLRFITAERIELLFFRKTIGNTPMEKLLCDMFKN", "type": "functional"}, "[11]": {"molecular_target": "T1, Polyadenylate-binding protein 1", "assay": "PABP1 MLLE–PAM2 interaction inhibitors, dose response, miRNA deadenylation inhibitor project, biochemical, fluorescence polarization, Cy5-PAM2 peptide, secondary (AID 602260)", "type": "functional", "settings": "read-out: IC50_Mean"}, "[12]": {"molecular_target": "T3, RNA-binding protein pos-1 (Caenorhabditis elegans, UniProt G5EF15)", "T3 sequence (G5EF15 whole entry)": "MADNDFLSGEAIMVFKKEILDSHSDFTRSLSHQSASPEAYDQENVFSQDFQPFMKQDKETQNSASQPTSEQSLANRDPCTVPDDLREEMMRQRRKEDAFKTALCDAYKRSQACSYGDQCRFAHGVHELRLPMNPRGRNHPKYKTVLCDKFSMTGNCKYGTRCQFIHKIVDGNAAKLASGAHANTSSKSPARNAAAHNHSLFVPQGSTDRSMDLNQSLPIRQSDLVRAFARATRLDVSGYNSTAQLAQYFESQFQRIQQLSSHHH", "assay": "inhibitors of POS-1/mex-3 RNA binding, dose response, biochemical, fluorescence polarization (AID 1964);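 also: purified POS-1 fused to maltose binding protein made in E. coli; potency of compounds blocking POS-1 binding to fluorescent RNA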"}, "[13]": {"molecular_target": "T4, Zinc finger protein mex-5 (Caenorhabditis elegans, UniProt Q9XUB2)", "T4 sequence (Q9XUB2 whole entry)": "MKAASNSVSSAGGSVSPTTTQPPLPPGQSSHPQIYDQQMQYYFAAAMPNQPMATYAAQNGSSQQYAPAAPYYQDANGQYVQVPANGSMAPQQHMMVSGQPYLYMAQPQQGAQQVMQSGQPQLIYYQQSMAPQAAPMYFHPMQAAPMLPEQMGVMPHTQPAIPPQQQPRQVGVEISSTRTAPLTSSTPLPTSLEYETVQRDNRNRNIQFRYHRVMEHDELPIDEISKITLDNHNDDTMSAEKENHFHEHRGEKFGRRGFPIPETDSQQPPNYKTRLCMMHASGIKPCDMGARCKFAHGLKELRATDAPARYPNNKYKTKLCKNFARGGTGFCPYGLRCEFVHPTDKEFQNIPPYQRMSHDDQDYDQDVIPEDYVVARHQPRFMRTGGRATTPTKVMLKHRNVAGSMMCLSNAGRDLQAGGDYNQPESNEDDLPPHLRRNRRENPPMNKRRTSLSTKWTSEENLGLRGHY", "assay": "MEX-5/TCR-2 RNA interaction inhibitors, dose response, biochemical, C. elegans, fluorescence polarization (AID 1960)"}, "[14]": {"molecular_target": "T1, Polyadenylate-binding protein 1", "assay": "PABP1 MLLE–PAM2 binding inhibitor potency, dose response, biochemical, fluorescence polarization, FITC-PAM2 peptide (AID 602259)", "type": "functional", "settings": "read-out: IC50_Mean"}, "[15]": {"molecular_target": "T5, Eukaryotic translation initiation factor 2-alpha kinase 3 (Homo sapiens, UniProt Q9NZJ5)", "T5 sequence (Q9NZJ5 whole entry)": "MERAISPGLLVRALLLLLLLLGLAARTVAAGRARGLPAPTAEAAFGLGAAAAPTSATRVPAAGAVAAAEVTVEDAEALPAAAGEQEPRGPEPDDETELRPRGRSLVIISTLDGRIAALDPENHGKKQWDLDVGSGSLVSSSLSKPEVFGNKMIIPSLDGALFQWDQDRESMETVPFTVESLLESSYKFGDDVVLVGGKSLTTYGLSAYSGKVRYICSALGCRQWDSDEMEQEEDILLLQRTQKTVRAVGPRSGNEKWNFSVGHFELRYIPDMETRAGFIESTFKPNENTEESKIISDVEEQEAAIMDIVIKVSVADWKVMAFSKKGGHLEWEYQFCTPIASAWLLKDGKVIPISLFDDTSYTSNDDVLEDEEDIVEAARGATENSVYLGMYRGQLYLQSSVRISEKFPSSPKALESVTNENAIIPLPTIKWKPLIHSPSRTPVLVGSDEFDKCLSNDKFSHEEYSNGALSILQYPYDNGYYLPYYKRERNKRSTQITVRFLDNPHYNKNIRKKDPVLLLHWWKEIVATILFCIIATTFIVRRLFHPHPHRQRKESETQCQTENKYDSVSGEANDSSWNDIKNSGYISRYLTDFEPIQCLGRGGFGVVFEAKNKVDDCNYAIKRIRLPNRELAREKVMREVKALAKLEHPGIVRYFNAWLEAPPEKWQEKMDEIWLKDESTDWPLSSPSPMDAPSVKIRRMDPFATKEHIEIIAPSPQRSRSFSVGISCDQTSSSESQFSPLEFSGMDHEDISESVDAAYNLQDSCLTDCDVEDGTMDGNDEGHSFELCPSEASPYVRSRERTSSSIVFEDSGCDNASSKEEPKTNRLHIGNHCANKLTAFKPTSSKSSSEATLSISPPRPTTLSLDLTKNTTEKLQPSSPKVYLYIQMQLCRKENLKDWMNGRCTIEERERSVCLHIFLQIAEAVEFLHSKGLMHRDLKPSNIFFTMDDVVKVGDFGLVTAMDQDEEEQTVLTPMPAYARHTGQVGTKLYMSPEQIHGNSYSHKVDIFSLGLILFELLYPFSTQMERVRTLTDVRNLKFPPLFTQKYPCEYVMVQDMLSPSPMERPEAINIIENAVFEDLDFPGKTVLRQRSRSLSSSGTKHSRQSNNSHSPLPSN", "assay": "Dose response cell-based high-throughput screening assay to measure PERK inhibition. [Related pubchem assays: 1416 ]", "type": "functional"}, "[16]": {"molecular_target": "T5, Eukaryotic translation initiation factor 2-alpha kinase 3", "assay": "Counterscreen assay for PERK inhibitors: Dose response cell-based high throughput screening assay to measure inhibition of PERK at 6 hours. [Related pubchem assays: 1522, 1416 ]", "type": "functional"}, "[17]": {"molecular_target": "T6, Caspase-6 (Homo sapiens, UniProt P55212)", "T6 sequence (P55212 whole entry)": "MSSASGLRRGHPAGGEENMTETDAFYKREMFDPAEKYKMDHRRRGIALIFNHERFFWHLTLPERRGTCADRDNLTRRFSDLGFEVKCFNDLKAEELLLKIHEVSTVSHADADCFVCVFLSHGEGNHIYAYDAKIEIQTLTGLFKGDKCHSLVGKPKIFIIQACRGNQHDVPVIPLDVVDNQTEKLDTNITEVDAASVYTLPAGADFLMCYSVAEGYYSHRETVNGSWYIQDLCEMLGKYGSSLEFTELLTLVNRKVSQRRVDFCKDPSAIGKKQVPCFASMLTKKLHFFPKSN", "assay": "human caspase-6 inhibitors, dose response, biochemical, VEID-R110 fluorescence, cherry-pick (AID 720632)"}}, "note": "Calls of active or inactive are those of the source.", "data": [{"smiles": "COc1cc(C)cc(C(=O)O)c1C1=C(O)C(=O)c2c(O)cccc2C1=O", "values": [{"measurement": "IC50", "setting": "[1]", "result": "5.43 µM (active)"}, {"measurement": "IC50", "setting": "[2]", "result": "5.41 µM (active)"}]}, {"smiles": "COc1cc(/C=C2/CC/C(=C/c3ccc(O)c(OC)c3)C2=O)ccc1O", "values": [{"measurement": "EC50", "setting": "[3]", "result": "173 µM (active)"}, {"measurement": "EC50", "setting": "[4]", "result": "> 150 µM (not active)"}, {"measurement": "EC50", "setting": "[5]", "result": "15.8 µM (active)"}, {"measurement": "EC50", "setting": "[6]", "result": "76.7 µM (active)"}, {"measurement": "EC50", "setting": "[7]", "result": "6.57 µM (active)"}, {"measurement": "EC50", "setting": "[8]", "result": "27.1 µM (active)"}]}, {"smiles": "COC(=O)c1cc2n3ccccc3c(C)c(-c3ccccc3)c-2c1C(=O)OC", "values": [{"measurement": "IC50", "setting": "[9]", "result": "196 nM (active)"}, {"measurement": "IC50", "setting": "[10]", "result": "186 nM (active)"}, {"measurement": "IC50", "setting": "[11]", "result": "> 66 µM (inactive)"}, {"measurement": "EC50", "setting": "[12]", "result": "23.6 µM (active)"}, {"measurement": "EC50", "setting": "[13]", "result": "16.6 µM (active)"}, {"measurement": "IC50", "setting": "[14]", "result": "54.7 µM (inactive)"}]}, {"smiles": "CCOC(=O)c1sc(NC(=O)C2C3C=CC(C3)C2C(=O)O)nc1C", "note": "(configuration not stated)", "values": [{"measurement": "EC50", "setting": "[15]", "result": "> 55.7 µM (not active)"}, {"measurement": "EC50", "setting": "[16]", "result": "> 55.7 µM (not active)"}, {"measurement": "AC50", "setting": "[17]", "result": "11.1 µM (active)"}]}]}
